According to PMC13258496, “Synthesis of Methoxylated Benzoxanthones as Drug Metabolites of Antischistosomal Schistodiones—A Limited Environmental Risk” (Molecules, 2026):

Tested on: S. aureus
Assay: Primary antibacterial screening
Type: cell-based
Settings: Staphylococcus aureus
Experimental: The cytotoxicity of the same compounds was evaluated against human fibroblasts (hMRC-5) and mouse macrophages (PMM). All assays were carried out with parent benzylMD (PD, SD-A2′,5′, SD-A3′,5′) and control drug references.
The primary in vitro evaluation of test compounds at LMPH is performed against a broad panel of pathogens to allow proper evaluation of selectivity. Compound stock solutions are prepared in 100% DMSO at 20 mM. The compounds are serially pre-diluted (two-fold or four-fold) in DMSO followed by a further (intermediate) dilution in demineralized water to assure a final in-test DMSO concentration of <1%.

IC50: 11.3 µM
Structure (SMILES): CC[C@H]1OC(=O)[C@H](C)[C@@H](O[C@H]2C[C@@](C)(OC)[C@@H](O)[C@H](C)O2)[C@H](C)[C@@H](O[C@@H]2O[C@H](C)C[C@H](N(C)C)[C@H]2O)[C@](C)(O)C[C@@H](C)C(=O)[C@H](C)[C@@H](O)[C@]1(C)O [Erythromycin]
